# Reference: a melting point compilation (Tetko et al.)
row,Structure (SMILES),melting point [°C]
1,O=C(O)C1CSC(c2ccccc2)N1 (mixture of isomers),158 to 162
2,ClC1=C(Cl)C2(Cl)C3C(Cl)OC(Cl)C3C1(Cl)C2(Cl)Cl (stereo not given),121
3,O=C(C(Cl)(Cl)Cl)C(Cl)(Cl)Cl,-2
4,CSc1nc(N)c(C(N)=O)s1,199 to 200
5,Oc1ccccc1N1CCNCC1,125
6,O=C(Nc1ccccc1NC(=O)c1ccccc1)c1ccccc1,301 to 302
7,Cc1cc(C)cc(C(=O)N(NC(=O)c2ccccc2)C(C)(C)C)c1,206
8,CCC(=O)OCC(C)C,-71.4
9,N#Cc1ccccc1Oc1ccc(Cl)cc1Cl,84 to 86
10,C=CC(=O)OCC(C)C,-61
11,O=[N+]([O-])c1ccccc1/C=C(/Cl)c1ccccn1,60.5 to 61
12,C1CCC(P(CP(C2CCCCC2)C2CCCCC2)C2CCCCC2)CC1,99
13,O=C1c2cccc([N+](=O)[O-])c2C(=O)c2cccc([N+](=O)[O-])c21,385
14,CC12CCCC1C1CCC(CCC(=O)O)C(C)(CCC(=O)O)C1CC2 (stereo not given),232
15,Cn1cnc(C=O)c1,68 to 69
16,O=C(O)CCCNC(=O)CCCCC(=O)NCCCC(=O)O,145
17,c1ccc(-n2ccnc2)cc1,13
18,FCC(F)(F)F,-101
19,CC12CCC(=O)CC1CCC1C2CCC2(C)C1CCC21OCCS1 (stereo not given),201
20,CC(C)=CC1C(C(=O)OCc2coc(Cc3ccccc3)c2)C1(C)C (stereo not given),56.5

row,Structure (SMILES),melting point [°C]
1,COc1ccc(F)c(CBr)c1F,55
2,O=C1OC(c2ccccc2)=NC1=Cc1ccc([N+](=O)[O-])cc1,214 to 215
3,COC(=O)C(OC)C(=O)OC,11 to 12
4,Clc1ccccc1-c1ccccc1Cl,61.5
5,Cc1ccc(S(=O)(=O)OC2CCCCC2)cc1,46
6,CC12CCC3C(CCC4CC5(CCC43C)OCCO5)C1CCC2O (stereo not given),212
7,C#CC1(O)CCC2(C)C(CCC3C2CCC2(C)C3CCC23OCCO3)C1 (stereo not given),203 to 209
8,O=C(Nc1ccccc1)Nc1ccnc(Cl)c1,167
9,Cc1c(C(=O)O)cc(-c2ccccc2)n1CCCN1CCOCC1,172 to 177
10,NS(=O)(=O)c1ccc(-c2ccc(C=O)o2)cc1,199 to 201
11,N#CC(c1ccc(O)cc1)N1CCOCC1 (stereo not given),148 to 150
12,Cc1ccc(-c2ccc(C=C3N=C(c4ccccc4)OC3=O)o2)cc1,149 to 150
13,NC(=O)Nc1ccccn1,173 to 175
14,CC(OC1C(N)C(O)OC(CO)C1O)C(=O)O (stereo not given),148
15,CCCCCCCCCCC(C)C(=O)O (stereo not given),22
16,NCCNC(=O)CCn1cnc2c(N)ncnc21,196
17,CC(C)C12CCC(C)(O1)C(=O)OC2=O (stereo not given),109
18,CN1CCN(Cc2cccc(I)c2)CC1,81 to 83
19,CN1CCC23c4c5ccc(OCCN6CCOCC6)c4OC2C(O)C=CC3C1C5 (stereo not given),91
20,CC(C)(C)C(=O)NNCc1ccccc1,68.5

row,Structure (SMILES),melting point [°C]
1,CCCCCCCCCCC(=O)c1ccccc1,28 to 30
2,COc1c(Cl)c(Cl)c(Cl)c(Cl)c1OC,90
3,CC1COC(Cn2cncn2)(c2ccc(Oc3ccc(Cl)cc3)cc2Cl)O1 (stereo not given),76
4,NNc1c2ccccc2nc2ccccc12,177
5,COc1ccc2c(c1)=NC1=C(C)NCCC=21,230
6,CCCCCCCCCCCCCCCc1cccc(O)c1O,59.5
7,O=C(Nc1ccc(Br)cc1)C(C(F)(F)F)C(F)(F)F,186
8,CO[C@@H](C)[C@H](N)C(=O)O,220 to 224
9,CC(=O)CCCCC(C)=O,44
10,Cn1c(C(F)(F)F)n[nH]c1=S,116 to 118
11,O=C1c2ccccc2CC2CCCCN12 (stereo not given),97
12,CCCCCCCCOC(=O)CCCCC,-28
13,Clc1ccc2c(N3CCNCC3)ccnc2c1,113 to 116
14,CCCCCCN1CC(C(=O)O)CC1=O (stereo not given),42.5
15,CCCCCCCCCC1CCCCC1,-10
16,O[C@H]1CCC[C@@H]1O,55
17,O=C(O)CCN1CCNCC1,71 to 86
18,Nc1c2ccccc2nc2ccccc12,241
19,OC1(c2ccc(Cl)c(C(F)(F)F)c2)CCN(CCCC(c2ccc(F)cc2)c2ccc(F)cc2)CC1,106
20,C=CCC1(C(C)CCC)C(=O)NC(=S)NC1=O (stereo not given),132

# Now from value to compound:
row,melting point [°C],Structure (SMILES)
1,194,Cc1cc(=O)oc2cc(O)ccc12
2,174,O=C(O)COc1cccc(Cl)c1Cl
3,35,CCN(Cc1ccccc1)c1ccccc1
4,56,Nc1ccc(C(F)(F)F)c(F)c1
5,206 to 209,CC(C)(C)OC(=O)n1cc(C(=O)O)c2cc(Br)ccc21
6,46,CC(c1ccccc1)C(C)(C)O (stereo not given)
7,288,COc1ccc(C2C3=C(CC(C)(C)CC3=O)Nc3ccc4ccccc4c32)cc1 (stereo not given)
8,62,Cc1cc(C)c2c(=O)n3c(cc2c1)CCCC3
9,30.5,C=CCc1ccc(OC(C)=O)c(OC)c1
10,169,COc1ccc(Cl)cc1C(=O)NCCc1ccc(S(=O)(=O)NC(=O)NC2CCCCC2)cc1
11,247,O=C(Nc1ccc(Cl)c(Cl)c1)c1cc(Cl)ccc1O
12,206 to 210,CCOC(=O)c1c(C)[nH]c2ccc(O)cc12
13,129 to 131,OCc1ccc2[nH]cnc2c1
14,47 to 50,CSCC[C@@H](NC(=O)OC(C)(C)C)C(=O)O
15,56,Cc1cc(C(C)(C)C)cc(C)c1I
16,66.5,Cc1ccc([N+](=O)[O-])cc1Cl
17,78 to 82,OCCOc1ccccc1OCCO
18,140,COc1cc(CCNC(=O)Cc2ccc(OC)c(OCc3ccccc3)c2)ccc1OCc1ccccc1
19,89 to 90,Cc1nn(-c2ccccc2)nc1C(=O)N1CCCC1
20,99,O=[N+]([O-])c1ccc(I)c(Cl)c1
21,300,Nc1nc(O)nc2[nH]cnc12
22,71 to 78,CC(C)(C)OC(=O)N1CCC(Oc2ccccc2N)CC1
23,36 to 37,CCC(=O)c1ccc(C(F)(F)F)cc1
24,217 to 221,CN(C=O)c1ccc(C(=O)O)cc1

row,melting point [°C],Structure (SMILES)
1,165 to 170,c1ccc(CN2CCc3c([nH]c4ccccc34)C2)cc1
2,102,COc1ccc(C2Cc3ccccc3C(C)(O)O2)cc1 (stereo not given)
3,31,FC(F)(F)c1cc(CCl)cc(C(F)(F)F)c1
4,218,CC(=O)Nc1ccc(/N=N/c2ccc(N(Nc3ccc(NC(C)=O)cc3)C(C)=O)cc2)cc1
5,102,CC(CCC(N)=O)n1nc2ccccc2n1 (stereo not given)
6,50 to 54,OCC1(c2ccc(Cl)cc2)CC1
7,46 to 47,COC(=O)c1cccc(CN2CCOCC2)c1
8,178,Oc1c(I)cc(Cl)c2cccnc12
9,129,CC(C)c1ncc[nH]1
10,-3,Cc1c(O)cc2c(c1C)OC(C)(CCCC(C)CCCC(C)CCCC(C)C)CC2 (stereo not given)
11,162,CCC(O)(CC)C1(C)CCC(C(=O)OC)C(C)(C)O1 (stereo not given)
12,300,CCOc1c(Nc2ccc(C(=O)O)cc2)c(=O)c1=O
13,85.5,CCCC(C)C(=O)Nc1ccc(C)c(Cl)c1 (stereo not given)
14,165,Cn1c(/C(C#N)=N/Nc2cccc(Cl)c2)nc2ccccc21
15,244 to 248,Oc1cc2c(cc1O)CCN=C2
16,188 to 190,Oc1ccc2ccccc2c1Cc1c(O)ccc2ccccc12
17,118 to 120,CCCCCSc1ncccc1C(=O)O
18,228,CSc1c(C#N)c(N)nc2c(/N=N/c3ccc(F)cc3)c(N)nn12
19,112,O=C(O)Cc1ccccc1Oc1ccc(Cl)cc1Cl
20,219 to 220,C/C(=N\CCc1ccccn1)c1c(O)c2ccccc2n(-c2ccccc2)c1=O
21,200,CC(=Nc1cccc(N)c1)c1c(O)c2ccccc2n(-c2ccccc2)c1=O
22,177,Clc1cc(Cl)c2c(oc3c(Cl)cccc32)c1Cl
23,101 to 102,CCOC(=O)c1cnn(C)c1N
24,142,COc1ccccc1OCC(N)=O

row,melting point [°C],Structure (SMILES)
1,152 to 158,CS(=O)(=O)c1ccc(F)c([N+](=O)[O-])c1
2,76,COc1cc(F)ccc1C#N
3,264,Cc1cccc(NC=C2C(=O)NN=C2c2c(O)c3ccccc3n(C)c2=O)c1
4,166,CC(C)(C)C(O)C(Cc1ccc(Cl)cc1)n1cncn1 (stereo not given)
5,141,CCOC(=O)CSc1sc(C(=O)OCC)c(N)c1C#N
6,57,OCCN(CCO)c1ccccc1
7,50 to 51,Nc1c(C(F)(F)F)cc(Cl)nc1Cl
8,46,O=C(c1ccccc1)c1ccc(F)c(C(F)(F)F)c1
9,72,N#Cc1ccnc(Br)c1
10,149,Oc1ccc(C#Cc2ccc(F)cc2)cc1
11,273,COc1cc2nc(N3CCN(C(=O)C4CCCO4)CC3)nc(N)c2cc1OC (stereo not given)
12,261 to 264,O=C1C=C(O)c2cccc3cccc1c23
13,78 to 80,Cc1cc([N+](=O)[O-])cnc1Cl
14,172,Nc1cccc(S(=O)(=O)c2cccc(N)c2)c1
15,-42,Fc1ccc(F)c(F)c1F
16,140,CC(C)(C)c1cc(CO)cc(C(C)(C)C)c1O
17,104,CC(CCC(C(=O)O)C(C)C)C(=O)O (stereo not given)
18,219,CCOC(=O)c1c(C)cc(O)nc1O
19,300,NC(=O)c1ccc(C(=O)O)cc1
20,205,CC1=C(C(=O)OC(C)C)C(c2ccco2)NC(=O)N1 (stereo not given)
21,76,O=[N+]([O-])c1ccc(O)cc1C(F)(F)F
22,123 to 126,COC(=O)c1ccc2cc(Br)ccc2c1
